Results taken from US11071744B2, “Prodrug salts” (AEROMICS, INC., priority 2013, dated 2021).
≈ marks a conversion by molar mass, not a printed value. Counter-ions that a name gives are not always drawn. Like-named read-outs stand apart in the source and are kept apart here.

Assays:
[1] = Experimental: (§1) 15 g is dissolved in 1.2 L of water with 120 mM of sodium hydroxide and extracted with 500 ml ethyl acetate to remove phenol and non acid impurities. The aqueous layer is acidified with concentrated HCl to pH 1.2 and extracted with ethyl acetate 1 L followed by 600 ml. […] Ethyl acetate is removed by adding 100 ml of methanol and evaporating. […] Sample kept at RT.
[2] = physchem; settings: for final pH of solutions: in water
Experimental: as §1

[3] = tested on: mouse middle cerebral artery occlusion (MCAo) model; assay: MCAo stroke model, survival; format: in vivo; settings: at 24 h; 2 mg/kg i.p. loading dose plus 1 mg/ml at 8 μl/h pump, vs saline
Experimental: (§6) To mimic this injury in mice, an intraluminal monofilament model of middle cerebral artery occlusion (MCAo) is used. Occlusion is achieved by inserting a surgical filament into the external carotid artery (ECA) and threading it forward into the internal carotid artery (ICA) until the tip blocks the origin of the MCA. […] This technique is used to study a temporary occlusion in which the MCA is blocked for one hour. The filament is then removed allowing reperfusion to occur for 24 hours before the animals brain is imaged using T2-weighted scans in a 9.4T Bruker MRI scanner at the Case Center for Imaging Research (FIG. 10).
Survival—Mice are treated with Compound 5 using a 2 mg/kg i.p. loading dose and 1 mg/ml at 8 μl/h maintenance dose (delivered by an i.p. osmotic pump) of Compound 5, or given saline (controls; n=17) using an identical approach.

[4] = tested on: mouse middle cerebral artery occlusion (MCAo) model; assay: MCAo stroke model, neurological outcome; format: in vivo
Experimental: as §6
Neurological Outcome—In the same experiment as above, animals are scored for neurological outcome on a simple 5 point scale described in Manley, G. T. et al., Aquaporin-4 Deletion in Mice Reduces Brain Edema After Acute Water Intoxication and Ischemic Stroke, Nature Medicine, 6, 159-163 (2000).

[5] = tested on: mouse middle cerebral artery occlusion (MCAo) model; assay: MCAo stroke model, cerebral edema (hemispheric brain volume by MRI)
Experimental: as §6
Cerebral Edema—Mice are given saline or treated with Compound 5 by multi-dosing at 5 mg/kg i.p. every three hours (n=8 per treatment). […] Ipsilateral and contralateral hemispheric volume is measured from the T2-weighted MR images of mice 24 hours post-icus. Relative change in hemispheric volume is calculated as a percent of the difference between ipsilateral brain volume (Vi) and contralateral brain volume (Vc) relative to the contralateral brain volume (Percent Change in Hemispheric Brain Volume=((Vi−Vc)/Vc)×100%.

[6] = biological target: T1, AQP4 (Homo sapiens, UniProt P55087); assay: AQP Inhibition Cell-Based Assay (Table 1)
T1 construct: expressed in transfected cells; host or cells: CHO

[7] = tested on: mouse water toxicity model; assay: Mouse water toxicity model, survival curves; settings: 0.76 mg/kg vs placebo
Experimental: Mouse Water Toxicity Model—Survival Curves: The in vivo efficacies of the compounds are tested using the mouse water toxicity model, where a mouse is injected with water at 20% of its body weight. […] The resulting euvolemic hyponatremia rapidly leads to CE, making this a practical model to test an inhibitor of the CNS aquaporin, AQP4b.
The ability of mice to survive H2O toxicity is determined in three experiments using 10-12 mice each (16-19 weak old male/female). Deionized water is prepared for injection with either 0.39 mg/kg phenylbenzamide (placebo) or 0.76 mg/kg with test compound.

[8] = tested on: mouse water toxicity model; assay: Mouse water toxicity model, brain volume by MRI
Experimental: Mouse Water Toxicity Model—Brain Volume by Magnetic Resonance Imaging (MRI): MRI is used to measure changes in brain volume in response to water shock, using the water toxicity model. As described for the survival and brain water content studies above, mice are injected, IP, with a water bolus alone or water bolus and test compound at 0.76 mg/kg, and changes in brain volume as detected by MRI are monitored. […] High resolution T2-weighted sagittal scans (resolution=0.1 mm×0.1 mm×0.7 mm) of the mouse head are obtained prior to water injection, 5.67 min post water injection, and then every 5.2 minutes until the animal expires from the water loading. Each scan contains twenty-five 0.7 mm contiguous imaging slices of which 14-15 slices contain a portion of the brain. The cross sectional area of the brain in each imaging slice is measured by manual region-of-interest selection using ImageJ. Brain volumes are then calculated for each scan by summing the individual cross sectional brain areas and multiplying by the slice thickness (0.7 mm).
The brain volume by magnetic resonance imaging experiment is also conducted with phenylbenzamide (0.39 mg/kg) and Compound 4 (0.83 mg/kg).

[9] = biological target: purified AQP4b (Homo sapiens, UniProt P55087); assay: Hummel-Dryer style binding assay with [3H]-Compound 4
Experimental: To support the mechanism of action by which phenylbenzamides directly block AQP4, we perform in vitro binding studies using purified AQP4b and Compound 4 radiolabeled with ^3H. Using a Hummel-Dryer style assay, a gel filtration column is equilibratrated with buffer containing detergent, to maintain solubility of AQP4b, and 1 μM [^3H]-Compound 4. AQP4b is diluted to 250 μM in this column buffer and incubated at RT for 30 min. The sample is then applied to the column, fractions collected and the presence of [^3H]-Compound 4 detected by liquid scintillation counting. […] The rise in [^3H]-Compound 4 from a baseline value of 1 μM represents binding to each of these proteins.

[10] = biological target: T2, AQP4b (Homo sapiens, UniProt P55087); assay: Aquaporin-Mediated Cell Volume Change Assay, CHO-AQP4b cells; format: cell-based; settings: read-out: inhibition of rate of shrinking, 10 μM, CHO-AQP4b cells, hypertonic shock
T2 construct: expressed in transfected cells
Experimental: (§2) Structure activity relationships (SARs) are determined by assaying analogues of selected hits to guide chemistry for the preparation of new molecules to be tested for improved potency. For this iterative process we use a quantitative kinetic assay—the Aquaporin-Mediated Cell Volume Change Assa—in a 96-well multiplate reader. It detects changes in light scattering by a monolayer of CHO cells expressing the desired AQP as they shrink when exposed to hypertonic solution (300 mOsm→530 mOsm). FIG. 1 depicts the aquaporin-mediated cell volume change assay with AQP4 expressing cells (FIG. 1A) and AQP2 expressing cells (FIG. 1B). The cells expressing aquaporins shrink more rapidly than control cells, due to enhanced water flow, which shrinkage can be inhibited by a compound that inhibits the aquaporin.
(§3) In FIG. 1, aquaporin-expressing cells are shown in the presence of DMSO (triangles) or in the presence of the test compound (here, Compound 3) at 10 μM (squares), along with CHO-CD81 expressing control cells in the presence of DMSO (diamonds). Each curve represents an average of 16 wells in the 96-well plate.
(§4) In FIG. 1A, when the AQP4b cells treated with DMSO are exposed to hypertonic shock, the cells show rapid shrinking, giving a rise in light scattering (increasing relative change in absorbance, Abs/Abs0) followed by a decay as cells detach from the plate. […]

[11] = tested on: AQP4b; assay: as above; format: cell-based; settings: 10 μM, AQP4 (both splice variants)
Experimental: as §2, §3, §4

[12] = biological target: T3, AQP2 (Homo sapiens, UniProt P41181); assay: Aquaporin-Mediated Cell Volume Change Assay, CHO-AQP2 cells; format: cell-based; settings: 10 μM
T3 construct: expressed in transfected cells
T3 sequence (P41181 1-271): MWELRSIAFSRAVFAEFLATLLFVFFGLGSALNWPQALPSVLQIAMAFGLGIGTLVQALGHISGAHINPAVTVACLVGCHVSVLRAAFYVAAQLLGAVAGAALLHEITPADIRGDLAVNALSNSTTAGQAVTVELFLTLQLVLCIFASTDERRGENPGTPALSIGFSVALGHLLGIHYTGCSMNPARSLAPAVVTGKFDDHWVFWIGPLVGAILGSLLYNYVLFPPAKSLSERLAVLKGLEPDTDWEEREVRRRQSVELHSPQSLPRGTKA
Experimental: as §2, §3, §4

[13] = biological target: T4, AQP1 (Homo sapiens, UniProt P29972); assay: Aquaporin-Mediated Cell Volume Change Assay, CHO cells expressing AQP1; format: cell-based; settings: 10 μM
T4 construct: expressed in transfected cells
T4 sequence (P29972 1-269): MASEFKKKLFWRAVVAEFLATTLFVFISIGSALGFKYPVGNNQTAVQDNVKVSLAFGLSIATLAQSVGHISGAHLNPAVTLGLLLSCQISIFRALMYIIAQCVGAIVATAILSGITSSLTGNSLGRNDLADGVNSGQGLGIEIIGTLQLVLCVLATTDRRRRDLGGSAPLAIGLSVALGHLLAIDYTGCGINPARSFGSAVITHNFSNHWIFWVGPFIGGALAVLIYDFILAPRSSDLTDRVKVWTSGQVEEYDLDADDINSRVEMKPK
Experimental: as §2
(§5) The specificity of the compounds is tested against the most closely related of the 13 known aquaporins: AQP1, AQP2, AQP5 and both splice variants of AQP4 (A and B). A stable CHO cell line is created for each of the above aquaporins and the inhibition of water permeability using the Aquaporin-Mediated Cell Volume Change Assay with 10 μM Compound 3 is tested.

[14] = biological target: T5, AQP5 (Homo sapiens, UniProt P55064); assay: Aquaporin-Mediated Cell Volume Change Assay, CHO cells expressing AQP5; format: cell-based; settings: 10 μM
T5 construct: expressed in transfected cells
Experimental: as §2, §5

[15] = Bioconversion of prodrug salt to Compound 1 in mouse plasma in vitro; format: in vitro ADME; settings: 20° C.
[16] = mice injected IP
Experimental: Measurements are taken at 15 minutes and 24 hours after a 10 mg/kg i.p. loading dose and 1 mg/ml at 8 μl/h maintenance dose (delivered by an Alzet i.p. osmotic pump, Durect Corp., Cupertino, Calif.) of 2-{[3,5-bis(trifluoromethyl)phenyl]carbamoyl}-4-chlorophenyl phosphate bis ethanolamine salt (n=5 mice/time point, mean±SEM) (FIG. 9). […] Samples are analyzed by tandem LC-MS/MS using C18 reversed-phase chromatography and mass analysis with a triple-quadrapole mass spectrometer.

[17] = solid state, freeze dried salts

T1 sequence (P55087 23-323, species assumed): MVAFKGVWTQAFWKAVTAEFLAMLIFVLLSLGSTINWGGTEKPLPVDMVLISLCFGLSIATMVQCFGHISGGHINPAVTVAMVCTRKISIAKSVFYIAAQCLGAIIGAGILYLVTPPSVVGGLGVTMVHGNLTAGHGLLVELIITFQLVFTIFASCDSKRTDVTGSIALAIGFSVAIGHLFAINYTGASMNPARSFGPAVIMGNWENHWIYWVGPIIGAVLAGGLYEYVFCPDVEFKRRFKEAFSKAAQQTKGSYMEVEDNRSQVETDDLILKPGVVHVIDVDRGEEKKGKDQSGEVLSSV
T2 sequence (P55087 23-323 limits assumed): as the sequence (P55087 23-323, species assumed) above
purified AQP4b, sequence (P55087 23-323): as the sequence (P55087 23-323, species assumed) above
T5 sequence (P55064 whole entry, species assumed): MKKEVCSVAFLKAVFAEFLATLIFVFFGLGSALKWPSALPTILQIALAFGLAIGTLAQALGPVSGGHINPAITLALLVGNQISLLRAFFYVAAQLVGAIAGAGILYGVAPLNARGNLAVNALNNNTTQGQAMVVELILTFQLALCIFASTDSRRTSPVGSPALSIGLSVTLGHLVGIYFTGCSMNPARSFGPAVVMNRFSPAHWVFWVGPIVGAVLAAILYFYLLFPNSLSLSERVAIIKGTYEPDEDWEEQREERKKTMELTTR

Q: With `O=C(Nc1cc(C(F)(F)F)cc(C(F)(F)F)c1)c1cc(Cl)ccc1OP(=O)([O-])[O-].[Na+].[Na+]` [Compound 5] as the molecule, how does the “hydrolysis in the solid state” value [1, 17] read?
A: about 1 % per day

Q: And the “longer term hydrolysis in solution” value ([1]; solution, RT, longer term)?
A: about 1 % per day

Q: And the solubility in water [2]?
A: 1000 µg/mL

Q: And the “final pH of solutions” value [2]?
A: ~9.5

Q: What about the solubility ([2]; water) of the same molecule?
A: ~10000 µg/mL

Q: What about the “improvement in overall survival” value [3] of the same molecule?
A: 29.4%

Q: And the average neurological score ([4]; 5 point scale, control 2.77±0.66)?
A: 0.88±0.31

Q: And the “progression of neurological state” value ([4]; mouse, in vivo)?
A: did not progress into a state of severe paralysis or death

Q: And the “relative change in ipsilateral hemispheric brain volume” value ([5]; 24 hours after MCAo, 5 mg/kg i.p. every three hours, ±SEM, control 13.4%)?
A: 4.2±1.7%

Q: And the “reduction in brain swelling after MCAo” value ([5]; vs saline control)?
A: 3.2 fold

Q: With `O=C(Nc1ccccc1)c1ccccc1` [Phenylbenzamide, reference compound] as the molecule, how does the “AQP Inhibition Cell-Based Assay (%)” value [6] read?
A: 4.5%

Q: What does the source list for `O=C(Nc1cc(C(F)(F)F)cc(C(F)(F)F)c1)c1cc(Cl)ccc1O` [Compound 1, N-(3,5-bis(trifluoromethyl)phenyl)-5-chloro-2-hydroxybenzamide]?
A: solubility in water ([2]; water): 3.8 µg/mL (≈ 0.0099 mM); improvement of percent survival [7]: 3.2 fold; improvement of time to 50% survival [7]: roughly 52 min; extent of CE during the period of observation ([8]; 0.76 mg/kg): reduced; reduction of rate of CE development ([8]; 0.76 mg/kg, from 0.081 to 0.032 min^−1): 2.5 fold; plasma levels ([8]; mouse water toxicity model, 0.76 mg/kg IP, LC-MS/MS): 0.03 to 0.06 µg

Q: What does the source list for `NCCO.O=C(Nc1cc(C(F)(F)F)cc(C(F)(F)F)c1)c1cc(Cl)ccc1OP(=O)(O)O` [mono ethanolamine salt]?
A: hydrolysis ([1]; after 5 days at RT): about 1%; solubility ([2]; water): ~5000 µg/mL

Q: Which results are given for `O=C(Nc1cc(C(F)(F)F)cc(C(F)(F)F)c1)c1cc(C(F)(F)F)ccc1O` [Compound 4, N-(3,5-bis(trifluoromethyl)phenyl)-2-hydroxy-5-(trifluoromethyl)benzamide]?
A: AQP Inhibition Cell-Based Assay (%) [6]: 38.9%; binding to solubilized AQP4b [9]: relatively weak binding

Q: Which inhibition at 10 µM [10] does the source give for `O=C(Nc1cc(Cl)cc(Cl)c1)c1cc(Cl)ccc1O` [Compound 3, 5-chloro-N-(3,5-dichlorophenyl)-2-hydroxybenzamide] here?
A: 55%

Q: And the “inhibition of water permeability” value [11]?
A: inhibits

Q: What about the “inhibition of water permeability” value [12] of the same molecule?
A: inhibits

Q: And the “inhibition of water permeability” value [13]?
A: poorly inhibits

Q: What about the “inhibition of water permeability” value [14] of the same molecule?
A: poorly inhibits

Q: What does the source list for `O=C(Nc1cc(C(F)(F)F)cc(C(F)(F)F)c1)c1cc(Cl)ccc1OP(=O)([O-])O.[Na+]` [mono sodium salt]?
A: hydrolysis in the solid state [1, 17]: about 1 % per day; longer term hydrolysis in solution ([1]; solution, RT, longer term): about 1 % per day; final pH of solutions [2]: ~8.5; solubility ([2]; water): ~5000 µg/mL

Q: Which “hydrolysis in the solid state” value [1] does the source give for `O=C(Nc1cc(C(F)(F)F)cc(C(F)(F)F)c1)c1cc(Cl)ccc1OP(=O)(O)O` [bis ethanolamine salt] here?
A: about 1 % per day

Q: And the “longer term hydrolysis in solution” value [1]?
A: about 1 % per day

Q: And the solubility ([2]; water)?
A: ~10000 µg/mL

Q: And the “time to render prodrug undetectable” value [15]?
A: Less than 5 minutes

Q: What about the “bioavailability and conversion to Compound 1” value [16] of the same molecule?
A: good bioavailability and near-complete conversion

Q: What about the “prodrug salt in plasma samples” value [16] of the same molecule?
A: undetectable

Q: With `O=C(Nc1cc(C(F)(F)F)cc(C(F)(F)F)c1)c1cc(Cl)ccc1OP(=O)(O)O` as the molecule, how does the “stability at RT” value [1] read?
A: stable at RT for a week or more

Q: And the solubility ([2]; pH 7, aqueous buffer)?
A: 5000 µg/mL (≈ 10.8 mM)
